Legend:
Test in all cases: relative viability (nuclei count vs DMSO), 5 days (fraction); higher = more cells survive
XMD14-99 + Pictilisib = compound: CN1CCN(CC1)C2=CC(=C(C=C2)NC3=NC(=C(S3)C(=O)C4=C(C=CC=C4Cl)Cl)N)OC [XMD14-99] + CS(=O)(=O)N1CCN(Cc2cc3nc(-c4cccc5[nH]ncc45)nc(N4CCOCC4)c3s2)CC1 [Pictilisib] (partner 1 µM)
Summary of the method: (§1)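 Nuclei were stained with Hoechst during a one-step fixation (final 0.05% Triton X-100, 1% formaldehyde, 1 ug/ml Hoechst) carried out 5 days after dosing, then counted on 4× images. The cells, lung cancer lines in 1536-well plates, had been dosed by pin tool the day after seeding with one drug alone or a fixed anchor-drug dose plus five library-drug doses (not always all listed) in √10 steps. Relative viability is the nuclei count in treated wells divided by that in vehicle wells, and each value is the median of duplicate plates.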

XMD14-99 + Trametinib = compound: CN1CCN(CC1)C2=CC(=C(C=C2)NC3=NC(=C(S3)C(=O)C4=C(C=CC=C4Cl)Cl)N)OC [XMD14-99] + CC(=O)Nc1cccc(-n2c(=O)n(C3CC3)c(=O)c3c(Nc4ccc(I)cc4F)n(C)c(=O)c(C)c32)c1 [Trametinib] (partner 0.02 µM)
Summary of the method: as §1

XMD14-99 + AZD7762 = compound: CN1CCN(CC1)C2=CC(=C(C=C2)NC3=NC(=C(S3)C(=O)C4=C(C=CC=C4Cl)Cl)N)OC [XMD14-99] + NC(=O)Nc1cc(-c2cccc(F)c2)sc1C(=O)N[C@H]1CCCNC1 [AZD7762] (partner 0.2 µM)
Summary of the method: as §1

AZD1208 + Phenformin = compound: N[C@@H]1CCCN(c2c(/C=C3\SC(=O)NC3=O)cccc2-c2ccccc2)C1 [AZD1208] + N=C(N)NC(=N)NCCc1ccccc1 [Phenformin] (partner 250 µM)
Summary of the method: as §1

| Cell Line | relative viability (XMD14-99 + Pictilisib; first compound 0.08 µM) | relative viability (XMD14-99 + Pictilisib; first compound 0.8 µM) | relative viability (XMD14-99 + Pictilisib; first compound 2.53 µM) | relative viability (XMD14-99 + Pictilisib; first compound 8 µM) | relative viability (XMD14-99 + Trametinib; first compound 0.08 µM) | relative viability (XMD14-99 + Trametinib; first compound 0.8 µM) | relative viability (XMD14-99 + Trametinib; first compound 2.53 µM) | relative viability (XMD14-99 + Trametinib; first compound 8 µM) | relative viability (XMD14-99 + AZD7762; first compound 0.08 µM) | relative viability (XMD14-99 + AZD7762; first compound 0.8 µM) | relative viability (XMD14-99 + AZD7762; first compound 2.53 µM) | relative viability (XMD14-99 + AZD7762; first compound 8 µM) | relative viability (AZD1208 + Phenformin; first compound 0.08 µM) | relative viability (AZD1208 + Phenformin; first compound 0.253 µM) | relative viability (AZD1208 + Phenformin; first compound 0.8 µM) | relative viability (AZD1208 + Phenformin; first compound 2.53 µM) | relative viability (AZD1208 + Phenformin; first compound 8 µM) |
| --- | --- | --- | --- | --- | --- | --- | --- | --- | --- | --- | --- | --- | --- | --- | --- | --- | --- |
| IA-LM | 0.34 | 0.256 | 0.157 | 0.191 | – | – | – | – | – | – | – | – | – | – | – | – | – |
| NCI-H441 | 0.451 | 0.442 | 0.51 | 0.283 | 0.523 | 0.436 | 0.389 | 0.263 | 0.939 | 1.2 | 1.3 | 0.793 | 0.782 | 0.66 | 0.609 | 0.641 | 0.556 |
| NCI-H322M | 0.514 | 0.538 | 0.495 | 0.476 | 0.491 | 0.565 | 0.593 | 0.521 | 0.593 | 0.542 | 0.583 | 0.509 | 0.761 | 0.75 | 0.731 | 0.741 | 0.782 |
| NCI-H1993 | 0.888 | 0.759 | 0.766 | 0.798 | 0.593 | 0.522 | 0.614 | 0.54 | 0.879 | 0.702 | 0.82 | 0.593 | 0.538 | 0.468 | 0.522 | 0.471 | 0.488 |
| COR-L23 | 0.676 | 0.748 | 0.68 | 0.414 | 0.518 | 0.56 | 0.546 | 0.363 | – | – | – | – | 0.491 | 0.469 | 0.417 | 0.419 | 0.408 |
| NCI-H2126 | 0.5 | 0.527 | 0.508 | 0.473 | 0.545 | 0.569 | 0.621 | 0.56 | 0.979 | 0.984 | 1.05 | 0.942 | 0.506 | 0.507 | 0.493 | 0.545 | 0.466 |
| LC-2-ad | 0.488 | 0.439 | 0.49 | 0.32 | 0.956 | 0.88 | 0.998 | 0.873 | 0.869 | 0.872 | 0.889 | 0.735 | 0.585 | 0.604 | 0.52 | 0.534 | 0.519 |
| COR-L 105 | 0.363 | 0.374 | 0.34 | 0.357 | 0.407 | 0.493 | 0.432 | 0.431 | – | – | – | – | 0.476 | 0.567 | 0.478 | – | 0.477 |
| SK-LU-1 | 0.554 | 0.576 | 0.545 | 0.344 | 0.538 | 0.502 | 0.473 | 0.309 | – | – | – | – | 0.502 | 0.543 | 0.408 | 0.506 | 0.42 |
| NCI-H661 | 0.375 | 0.322 | 0.389 | 0.298 | 0.573 | 0.598 | 0.481 | 0.516 | – | – | – | – | 0.264 | 0.286 | 0.276 | 0.295 | 0.268 |
| NCI-H2228 | 0.567 | 0.31 | 0.271 | 0.184 | 0.612 | 0.534 | 0.431 | 0.209 | – | – | – | – | 0.364 | 0.316 | 0.209 | 0.269 | 0.216 |
| NCI-H2009 | 0.752 | 0.948 | 0.85 | 0.556 | 0.258 | 0.317 | 0.254 | 0.185 | – | – | – | – | 0.481 | 0.489 | 0.491 | 0.489 | 0.441 |
| SW 1573 | 0.434 | 0.531 | 0.496 | 0.547 | 0.547 | 0.58 | 0.74 | 0.47 | – | – | – | – | 0.295 | 0.272 | 0.27 | 0.244 | 0.228 |
| NCI-H522 | – | – | – | – | 0.783 | 0.901 | 0.75 | 0.85 | 0.693 | 1.01 | 0.806 | 0.924 | 0.614 | 0.678 | 0.569 | 0.618 | 0.479 |
| NCI-H1299 | 0.668 | 0.637 | 0.623 | 0.505 | – | – | – | – | – | – | – | – | – | – | – | – | – |
| NCI-H1650 | 0.561 | 0.67 | 0.505 | 0.328 | 0.642 | 0.738 | 0.542 | 0.503 | – | – | – | – | 0.416 | 0.424 | 0.414 | 0.337 | 0.289 |
| NCI-H2023 | 0.238 | 0.247 | 0.26 | 0.157 | 0.495 | 0.562 | 0.754 | 0.442 | – | – | – | – | 0.394 | 0.386 | 0.348 | 0.367 | 0.295 |
| NCI-H1648 | – | – | – | – | 0.613 | 0.46 | 0.459 | 0.466 | 0.715 | 0.625 | 0.672 | 0.581 | – | – | – | – | – |
| SK-MES-1 | 0.407 | 0.327 | 0.349 | 0.247 | 0.524 | 0.564 | 0.622 | 0.392 | – | – | – | – | 0.668 | 0.672 | 0.648 | 0.696 | 0.621 |
| NCI-H2342 | – | – | – | – | 0.885 | 0.882 | 0.949 | 0.848 | 0.55 | 0.502 | 0.583 | 0.458 | 0.563 | 0.585 | 0.52 | 0.569 | 0.462 |
| SW 900 | – | – | – | – | 0.779 | 0.876 | 0.752 | 0.756 | 0.633 | 0.681 | 0.71 | 0.548 | 0.624 | 0.852 | 0.397 | 0.503 | 0.384 |
| A549 | 0.397 | 0.545 | 0.505 | 0.348 | – | – | – | – | – | – | – | – | 0.157 | 0.172 | 0.168 | 0.132 | 0.127 |
| NCI-H520 | 0.254 | 0.266 | 0.277 | 0.266 | 0.656 | 0.747 | 0.745 | 0.437 | – | – | – | – | 0.47 | 0.577 | 0.476 | 0.369 | 0.279 |
| NCI-H1563 | 0.683 | 0.632 | 0.666 | 0.568 | – | – | – | – | – | – | – | – | 0.64 | 0.644 | 0.709 | 0.617 | 0.665 |
| ABC-1 | 0.754 | 0.667 | 0.588 | 0.47 | – | – | – | – | 0.859 | 1.03 | 0.865 | 0.762 | 0.232 | 0.238 | 0.212 | 0.229 | 0.2 |

— the supplement of paper PMC10307832
